Results on 2 compounds are retold here after publication PMC3254807 (2011).

The experiment deals with Na+/K+ ATPase. Description: colorimetric ATPase assay. Format: biochemical, Sus scrofa.

The structures appear in SMILES notation.

As usually defined, the IC50 is the concentration that inhibits the measured activity by half. Low readings indicate higher potency, high ones lower potency. As to `C[C@@H]1O[C@@H](O[C@H]2CC[C@@]3(C)[C@H](CC[C@@H]4[C@@H]3CC[C@]3(C)[C@@H](C5=CC(=O)OC5)CC[C@]43O)C2)[C@H](O)[C@H](O)[C@H]1O` [D6-MA], the IC50 was found to be 1100 nM. This counts as single-digit micromolar.
With `C[C@H]1O[C@@H](O[C@H]2[C@@H](O)C[C@H](O[C@H]3[C@@H](O)C[C@H](O[C@H]4CC[C@@]5(C)[C@H](CC[C@@H]6[C@@H]5CC[C@]5(C)[C@@H](C7=CC(=O)OC7)CC[C@]65O)C4)O[C@@H]3C)O[C@@H]2C)C[C@H](O)[C@@H]1O` [Digitoxin] the figure was 2800 nM.
